Source: ChEMBL document CHEMBL3885881, “DrugMatrix”

Species: Rattus norvegicus
Assay: DrugMatrix - Regimen: Daily Repeat
Format: toxicity, organism-based, Sprague-Dawley
Set-up: regimen Daily Repeat, gender Male, age 6-8 weeks
Conditions: in vivo, po, route oral GAVAGE, vehicle 100 % SALINE; for ABSOLUTE BASOPHIL / ABSOLUTE EOSINOPHIL / ABSOLUTE LYMPHOCYTE / ABSOLUTE MONOCYTE / BASOPHIL / EOSINOPHIL / ERYTHROCYTE COUNT / HEMATOCRIT / HEMOGLOBIN / LEUKOCYTE COUNT / LYMPHOCYTE / MEAN CORPUSCULAR HEMOGLOBIN / MEAN CORPUSCULAR HEMOGLOBIN CONCENTRATION / MEAN CORPUSCULAR VOLUME / MONOCYTE / NEUTROPHIL / PLATELET COUNT: tissue Blood; for ALANINE AMINOTRANSFERASE / ALBUMIN / ALKALINE PHOSPHATASE / ASPARTATE AMINOTRANSFERASE / BLOOD UREA NITROGEN / CARBON DIOXIDE / CHLORIDE / CHOLESTEROL / CREATINE PHOSPHOKINASE / CREATININE / GLUCOSE / LACTATE DEHYDROGENASE / LIPASE / PHOSPHORUS / POTASSIUM / SODIUM / TOTAL BILIRUBIN / TOTAL PROTEIN / URIC ACID: tissue Plasma
[1] = 0 mg/kg, 72 h, dose level Control, time 3 day
[2] = 0 mg/kg, 120 h, dose level Control, time 5 day
[3] = 0 mg/kg, […], dose level Control, time 14 day
[4] = […], 72 h, dose 7.5 mg/Kg, dose level High, time 3 day
[5] = […], 120 h, dose 7.5 mg/Kg, dose level High, time 5 day

Structure (SMILES): Nc1ncnc2c1ncn2[C@@H]1O[C@H](CO)[C@@H](O)[C@H]1F [2'-BETA-FLUORO-2',3'-DEOXYADENOSINE]
- ABSOLUTE BASOPHIL [1]: 140 cells/µL
- ABSOLUTE EOSINOPHIL [1]: 43.3 cells/µL
- ABSOLUTE LYMPHOCYTE [1]: 7570 cells/µL
- ABSOLUTE MONOCYTE [1]: 160 cells/µL
- BASOPHIL [1]: 1.47%
- EOSINOPHIL [1]: 0.47%
- ERYTHROCYTE COUNT [1]: 6.68 x10E6/uL
- HEMATOCRIT [1]: 44.33%
- HEMOGLOBIN [1]: 14.43 G/DL
- LEUKOCYTE COUNT [1]: 9.33 x10E3/uL
- LYMPHOCYTE [1]: 81.23%
- MEAN CORPUSCULAR HEMOGLOBIN [1]: 21.67 pg
- MEAN CORPUSCULAR HEMOGLOBIN CONCENTRATION [1]: 32.6 G/DL
- MEAN CORPUSCULAR VOLUME [1]: 66.43 fL
- MONOCYTE [1]: 1.73%
- NEUTROPHIL [1]: 14.7%
- PLATELET COUNT [1]: 1341.67 x10E3/uL
- ALANINE AMINOTRANSFERASE [1]: 31 u/L
- ALBUMIN [1]: 4.03 G/DL
- ALKALINE PHOSPHATASE [1]: 447 u/L
- ASPARTATE AMINOTRANSFERASE [1]: 61.33 u/L
- BLOOD UREA NITROGEN [1]: 15.67 mg/dL
- CARBON DIOXIDE [1]: 43 mmol/L
- CHLORIDE [1]: 103.33 MEQ/L
- CHOLESTEROL [1]: 83.67 mg/dL
- CREATINE PHOSPHOKINASE [1]: 174.33 u/L
- CREATININE [1]: 0.4 mg/dL
- GLUCOSE [1]: 173 mg/dL
- LACTATE DEHYDROGENASE [1]: 87.67 u/L
- LIPASE [1]: 17.33 u/L
- PHOSPHORUS [1]: 10.27 mg/dL
- POTASSIUM [1]: 6.47 MEQ/L
- SODIUM [1]: 143.67 MEQ/L
- TOTAL BILIRUBIN [1]: 0.37 mg/dL
- TOTAL PROTEIN [1]: 6.63 G/DL
- URIC ACID [1]: 1.03 mg/dL
- ABSOLUTE BASOPHIL [2]: 53.3 cells/µL
- ABSOLUTE EOSINOPHIL [2]: 210 cells/µL
- ABSOLUTE LYMPHOCYTE [2]: 8220 cells/µL
- ABSOLUTE MONOCYTE [2]: 200 cells/µL
- BASOPHIL [2]: 0.53%
- EOSINOPHIL [2]: 2.1%
- ERYTHROCYTE COUNT [2]: 7 x10E6/uL
- HEMATOCRIT [2]: 44%
- HEMOGLOBIN [2]: 14.53 G/DL
- LEUKOCYTE COUNT [2]: 10.44 x10E3/uL
- LYMPHOCYTE [2]: 78.07%
- MEAN CORPUSCULAR HEMOGLOBIN [2]: 20.77 pg
- MEAN CORPUSCULAR HEMOGLOBIN CONCENTRATION [2]: 33 G/DL
- MEAN CORPUSCULAR VOLUME [2]: 62.87 fL
- MONOCYTE [2]: 1.87%
- NEUTROPHIL [2]: 16.8%
- PLATELET COUNT [2]: 1104.33 x10E3/uL
- ALANINE AMINOTRANSFERASE [2]: 31.67 u/L
- ALBUMIN [2]: 3.93 G/DL
- ALKALINE PHOSPHATASE [2]: 394.67 u/L
- ASPARTATE AMINOTRANSFERASE [2]: 65.67 u/L
- BLOOD UREA NITROGEN [2]: 15.67 mg/dL
- CARBON DIOXIDE [2]: 40.67 mmol/L
- CHLORIDE [2]: 104.33 MEQ/L
- CHOLESTEROL [2]: 66.33 mg/dL
- CREATINE PHOSPHOKINASE [2]: 346.67 u/L
- CREATININE [2]: 0.33 mg/dL
- GLUCOSE [2]: 176.67 mg/dL
- LACTATE DEHYDROGENASE [2]: 109 u/L
- LIPASE [2]: 14.33 u/L
- PHOSPHORUS [2]: 11.17 mg/dL
- POTASSIUM [2]: 6.53 MEQ/L
- SODIUM [2]: 146 MEQ/L
- TOTAL BILIRUBIN [2]: 0.37 mg/dL
- URIC ACID [2]: 0.97 mg/dL
- ABSOLUTE BASOPHIL [3]: 93.3 cells/µL
- ABSOLUTE EOSINOPHIL [3]: 80 cells/µL
- ABSOLUTE LYMPHOCYTE [3]: 6890 cells/µL
- ABSOLUTE MONOCYTE [3]: 170 cells/µL
- BASOPHIL [3]: 1%
- EOSINOPHIL [3]: 0.83%
- ERYTHROCYTE COUNT [3]: 7.03 x10E6/uL
- HEMATOCRIT [3]: 43.4%
- HEMOGLOBIN [3]: 14.83 G/DL
- LEUKOCYTE COUNT [3]: 8.94 x10E3/uL
- LYMPHOCYTE [3]: 77.93%
- MEAN CORPUSCULAR HEMOGLOBIN [3]: 21.1 pg
- MEAN CORPUSCULAR HEMOGLOBIN CONCENTRATION [3]: 34.17 G/DL
- MEAN CORPUSCULAR VOLUME [3]: 61.77 fL
- MONOCYTE [3]: 1.33%
- NEUTROPHIL [3]: 18%
- PLATELET COUNT [3]: 1097.33 x10E3/uL
- ALANINE AMINOTRANSFERASE [3]: 32 u/L
- ALBUMIN [3]: 3.83 G/DL
- ALKALINE PHOSPHATASE [3]: 334.67 u/L
- ASPARTATE AMINOTRANSFERASE [3]: 69.33 u/L
- BLOOD UREA NITROGEN [3]: 16 mg/dL
- CARBON DIOXIDE [3]: 40 mmol/L
- CHLORIDE [3]: 105.67 MEQ/L
- CHOLESTEROL [3]: 70.33 mg/dL
- CREATINE PHOSPHOKINASE [3]: 144.67 u/L
- CREATININE [3]: 0.3 mg/dL
- GLUCOSE [3]: 177.67 mg/dL
- LACTATE DEHYDROGENASE [3]: 97.67 u/L
- LIPASE [3]: 16.33 u/L
- PHOSPHORUS [3]: 10.83 mg/dL
- POTASSIUM [3]: 5.77 MEQ/L
- SODIUM [3]: 143.33 MEQ/L
- TOTAL BILIRUBIN [3]: 0.33 mg/dL
- TOTAL PROTEIN [3]: 6.37 G/DL
- URIC ACID [3]: 0.17 mg/dL
- ABSOLUTE BASOPHIL [4]: 280 cells/µL
- ABSOLUTE EOSINOPHIL [4]: 220 cells/µL
- ABSOLUTE LYMPHOCYTE [4]: 9970 cells/µL
- ABSOLUTE MONOCYTE [4]: 370 cells/µL
- BASOPHIL [4]: 2.3%
- EOSINOPHIL [4]: 2.07%
- ERYTHROCYTE COUNT [4]: 6.92 x10E6/uL
- HEMATOCRIT [4]: 45.73%
- HEMOGLOBIN [4]: 14.7 G/DL
- LEUKOCYTE COUNT [4]: 12.17 x10E3/uL
- LYMPHOCYTE [4]: 81.03%
- MEAN CORPUSCULAR HEMOGLOBIN [4]: 21.23 pg
- MEAN CORPUSCULAR HEMOGLOBIN CONCENTRATION [4]: 32.1 G/DL
- MEAN CORPUSCULAR VOLUME [4]: 66.07 fL
- MONOCYTE [4]: 3.03%
- NEUTROPHIL [4]: 11.03%
- PLATELET COUNT [4]: 1214.67 x10E3/uL
- ALANINE AMINOTRANSFERASE [4]: 43.33 u/L
- ALBUMIN [4]: 3.93 G/DL
- ALKALINE PHOSPHATASE [4]: 434.67 u/L
- ASPARTATE AMINOTRANSFERASE [4]: 98.33 u/L
- BLOOD UREA NITROGEN [4]: 16 mg/dL
- CARBON DIOXIDE [4]: 43.33 mmol/L
- CHLORIDE [4]: 103 MEQ/L
- CHOLESTEROL [4]: 76.33 mg/dL
- CREATINE PHOSPHOKINASE [4]: 214.67 u/L
- CREATININE [4]: 0.43 mg/dL
- GLUCOSE [4]: 167.67 mg/dL
- LACTATE DEHYDROGENASE [4]: 99.33 u/L
- LIPASE [4]: 12 u/L
- PHOSPHORUS [4]: 11 mg/dL
- POTASSIUM [4]: 7.1 MEQ/L
- SODIUM [4]: 144 MEQ/L
- TOTAL BILIRUBIN [4]: 0.33 mg/dL
- TOTAL PROTEIN [4]: 6.37 G/DL
- URIC ACID [4]: 0.97 mg/dL
- ABSOLUTE BASOPHIL [5]: 86.7 cells/µL
- ABSOLUTE EOSINOPHIL [5]: 120 cells/µL
- ABSOLUTE LYMPHOCYTE [5]: 11100 cells/µL
- ABSOLUTE MONOCYTE [5]: 270 cells/µL
- BASOPHIL [5]: 0.63%
- EOSINOPHIL [5]: 0.9%
- ERYTHROCYTE COUNT [5]: 7.18 x10E6/uL
- HEMATOCRIT [5]: 44.8%
- HEMOGLOBIN [5]: 14.83 G/DL
- LEUKOCYTE COUNT [5]: 13.05 x10E3/uL
- LYMPHOCYTE [5]: 85.27%
- MEAN CORPUSCULAR HEMOGLOBIN [5]: 20.7 pg
- MEAN CORPUSCULAR HEMOGLOBIN CONCENTRATION [5]: 33.13 G/DL
- MEAN CORPUSCULAR VOLUME [5]: 62.43 fL
- MONOCYTE [5]: 2.07%
- NEUTROPHIL [5]: 10.57%
- PLATELET COUNT [5]: 1282.67 x10E3/uL
- ALANINE AMINOTRANSFERASE [5]: 66 u/L
- ALBUMIN [5]: 3.73 G/DL
- ALKALINE PHOSPHATASE [5]: 389.33 u/L
- ASPARTATE AMINOTRANSFERASE [5]: 161.67 u/L
- BLOOD UREA NITROGEN [5]: 16 mg/dL
- CARBON DIOXIDE [5]: 40 mmol/L
- CHLORIDE [5]: 106.67 MEQ/L
- CHOLESTEROL [5]: 69.67 mg/dL
- CREATINE PHOSPHOKINASE [5]: 169 u/L
- CREATININE [5]: 0.4 mg/dL
- GLUCOSE [5]: 172.33 mg/dL
- LACTATE DEHYDROGENASE [5]: 94.33 u/L
- LIPASE [5]: 11.33 u/L
- PHOSPHORUS [5]: 10.2 mg/dL
- POTASSIUM [5]: 6.1 MEQ/L
- SODIUM [5]: 147.33 MEQ/L
- TOTAL BILIRUBIN [5]: 0.3 mg/dL
- TOTAL PROTEIN [5]: 6.03 G/DL
- URIC ACID [5]: 0.97 mg/dL
